Laboratory results as given in US20040063662A1, “Selenophene anti-tumor agents” (priority 1996, published 2004).

Columns and labels:
M14 = assay: NCI human tumor cell panel: M14 (Melanoma); assay type: cell-based
OVCAR-4 = assay: NCI human tumor cell panel: OVCAR-4 (Ovarian Cancer); assay type: cell-based
MALME-3M = assay: NCI human tumor cell panel: MALME-3M (Melanoma); assay type: cell-based; conditions: Malme-3M
SW-620 = assay: NCI human tumor cell panel: SW-620 (Colon Cancer); assay type: cell-based
HCT-116 = assay: NCI human tumor cell panel: HCT-116 (Colon Cancer); assay type: cell-based
HCT-15 = assay: NCI human tumor cell panel: HCT-15 (Colon Cancer); assay type: cell-based
UACC-62 = assay: NCI human tumor cell panel: UACC-62 (Melanoma); assay type: cell-based
LOX IMVI = assay: NCI human tumor cell panel: LOX IMVI (Melanoma); assay type: cell-based
UACC-257 = assay: NCI human tumor cell panel: UACC-257 (Melanoma); assay type: cell-based
HOP-92 = assay: NCI human tumor cell panel: HOP-92 (Non-Small Cell Lung Cancer)
RPMI-8226 = assay: NCI human tumor cell panel: RPMI-8226 (Leukemia); assay type: cell-based
HOP-62 = assay: NCI human tumor cell panel: HOP-62 (Non-Small Cell Lung Cancer); assay type: cell-based
HCC-2998 = assay: NCI human tumor cell panel: HCC-2998 (Colon Cancer); assay type: cell-based
DU-145 = assay: NCI human tumor cell panel: DU-145 (Prostate Cancer); assay type: cell-based
MCF7 = assay: NCI human tumor cell panel: MCF7 (Breast Cancer); assay type: cell-based
HT29 = assay: NCI human tumor cell panel: HT29 (Colon Cancer); assay type: cell-based; conditions: HT-29, HT29, read-out: Log10 TGI (converted)
OVCAR-8 = assay: NCI human tumor cell panel: OVCAR-8 (Ovarian Cancer); assay type: cell-based
MDA-N = assay: NCI human tumor cell panel: MDA-N (Breast Cancer); assay type: cell-based
MOLT-4 = assay: NCI human tumor cell panel: MOLT-4 (Leukemia); assay type: cell-based
NCI-H322M = assay: cells; assay type: cell-based; conditions: Homo sapiens
SF-539 = assay: NCI human tumor cell panel: SF-539 (CNS Cancer); assay type: cell-based
EKVX = assay: NCI human tumor cell panel: EKVX (Non-Small Cell Lung Cancer); assay type: cell-based
ACHN = assay: NCI human tumor cell panel: ACHN (Renal Cancer); assay type: cell-based
KM12 = assay: NCI human tumor cell panel: KM12 (Colon Cancer); assay type: cell-based
MDA-MB-435 = assay: NCI human tumor cell panel: MDA-MB-435 (Breast Cancer); assay type: cell-based
NCI-H460 = assay: NCI human tumor cell panel: NCI-H460 (Non-Small Cell Lung Cancer); assay type: cell-based
SR = assay: NCI human tumor cell panel: SR (Leukemia); assay type: cell-based
SF-295 = assay: NCI human tumor cell panel: SF-295 (CNS Cancer); assay type: cell-based
UO-31 = assay: NCI human tumor cell panel: UO-31 (Renal Cancer); assay type: cell-based
U251 = assay: NCI human tumor cell panel: U251 (CNS Cancer); assay type: cell-based
OVCAR-3 = assay: NCI human tumor cell panel: OVCAR-3 (Ovarian Cancer); assay type: cell-based
[1] = read-out: Log10 GI50 (converted)
[2] = read-out: Log10 TGI (converted)

In the case of `OCc1ccc(-c2ccc(-c3ccc(CO)s3)[se]2)s1` [compound 675343], the GI50 (M14; M14, read-out: Log10 GI50 (converted)) is reported as greater than 100 µM, the IC (TGI) (M14; M14, read-out: Log10 TGI (converted)) is reported as greater than 100 µM and the GI50 (OVCAR-4; OVCAR-4, read-out: Log10 GI50 (converted)) is reported as less than 0.01 µM. It also gave an IC (TGI) (OVCAR-4; OVCAR-4, read-out: Log10 TGI (converted)) greater than 100 µM, a GI50 (MALME-3M; [1]) greater than 100 µM and an IC (TGI) (MALME-3M; [2]) greater than 100 µM. The GI50 (SW-620; SW-620, read-out: Log10 GI50 (converted)) was less than 0.01 µM, the IC (TGI) (SW-620; SW-620, read-out: Log10 TGI (converted)) was greater than 100 µM and the GI50 (HCT-116; HCT-116, read-out: Log10 GI50 (converted)) was less than 0.01 µM. For the same molecule, the IC (TGI) (HCT-116; HCT-116, read-out: Log10 TGI (converted)) was greater than 100 µM, the GI50 (HCT-15; HCT-15, read-out: Log10 GI50 (converted)) was greater than 100 µM and the IC (TGI) (HCT-15; HCT-15, read-out: Log10 TGI (converted)) was greater than 100 µM. It also gave a GI50 (UACC-62; UACC-62, read-out: Log10 GI50 (converted)) of less than 0.01 µM, an IC (TGI) (UACC-62; UACC-62, read-out: Log10 TGI (converted)) greater than 100 µM and a GI50 (LOX IMVI; [1]) greater than 100 µM. The IC (TGI) (LOX IMVI; [2]) was greater than 100 µM, the GI50 (UACC-257; UACC-257, read-out: Log10 GI50 (converted)) was less than 0.01 µM and the IC (TGI) (UACC-257; UACC-257, read-out: Log10 TGI (converted)) was less than 0.01 µM. The GI50 (HOP-92; HOP-92, read-out: Log10 GI50 (converted)) was 40.7 µM, the IC (TGI) (HOP-92; HOP-92, read-out: Log10 TGI) was greater than 100 µM and the GI50 (RPMI-8226; RPMI-8226, read-out: Log10 GI50 (converted)) was greater than 100 µM. For the same molecule, the IC (TGI) (RPMI-8226; RPMI-8226, read-out: Log10 TGI) was greater than 100 µM, the GI50 (HOP-62; HOP-62, read-out: Log10 GI50 (converted)) was greater than 100 µM and the IC (TGI) (HOP-62; HOP-62, read-out: Log10 TGI (converted)) was greater than 100 µM. It also gave a GI50 (HCC-2998; HCC-2998, read-out: Log10 GI50 (converted)) of less than 0.01 µM, an IC (TGI) (HCC-2998; HCC-2998, read-out: Log10 TGI (converted)) of 3.39 µM and a GI50 (DU-145; DU-145, read-out: Log10 GI50 (converted)) greater than 100 µM. The IC (TGI) (DU-145; DU-145, read-out: Log10 TGI (converted)) was greater than 100 µM, the GI50 (MCF7; MCF7, read-out: Log10 GI50 (converted)) was less than 0.01 µM and the IC (TGI) (MCF7; MCF7, read-out: Log10 TGI (converted)) was greater than 100 µM. It also gave an IC (TGI) (HT29) greater than 100 µM, a GI50 (OVCAR-8; OVCAR-8, read-out: Log10 GI50 (converted)) of less than 0.01 µM and an IC (TGI) (OVCAR-8; OVCAR-8, read-out: Log10 TGI (converted)) greater than 100 µM. The GI50 (MDA-N; [1]) was greater than 100 µM, the IC (TGI) (MDA-N; [2]) was greater than 100 µM and the GI50 (MOLT-4; MOLT-4, read-out: Log10 GI50 (converted)) was 28.8 µM. For the same molecule, the IC (TGI) (MOLT-4; MOLT-4, read-out: Log10 TGI (converted)) was 87.1 µM, the GI50 (NCI-H322M; [1]) was 9.77 µM and the IC (TGI) (NCI-H322M; [2]) was greater than 100 µM. It also gave a GI50 (SF-539; SF-539, read-out: Log10 GI50 (converted)) greater than 100 µM, an IC (TGI) (SF-539; SF-539, read-out: Log10 TGI (converted)) greater than 100 µM and a GI50 (EKVX; [1]) greater than 100 µM. It also gave an IC (TGI) (EKVX; [2]) greater than 100 µM, a GI50 (ACHN; [1]) greater than 100 µM and an IC (TGI) (ACHN; [2]) greater than 100 µM. For the same molecule, the GI50 (KM12; KM12, read-out: Log10 GI50 (converted)) was greater than 100 µM, the IC (TGI) (KM12; KM12, read-out: Log10 TGI (converted)) was greater than 100 µM and the GI50 (MDA-MB-435; MDA-MB-435, read-out: Log10 GI50 (converted)) was greater than 100 µM. The IC (TGI) (MDA-MB-435; MDA-MB-435, read-out: Log10 TGI (converted)) was greater than 100 µM, the GI50 (NCI-H460; NCI-H460, read-out: Log10 GI50 (converted)) was less than 0.01 µM and the IC (TGI) (NCI-H460; NCI-H460, read-out: Log10 TGI (converted)) was greater than 100 µM. For the same molecule, the GI50 (SR; [1]) was greater than 100 µM, the IC (TGI) (SR; [2]) was greater than 100 µM and the GI50 (SF-295; SF-295, read-out: Log10 GI50 (converted)) was greater than 100 µM. The IC (TGI) (SF-295; SF-295, read-out: Log10 TGI (converted)) was greater than 100 µM, the GI50 (UO-31; UO-31, read-out: Log10 GI50 (converted)) was greater than 100 µM and the IC (TGI) (UO-31; UO-31, read-out: Log10 TGI (converted)) was greater than 100 µM. It also gave a GI50 (U251; U-251, U251, read-out: Log10 GI50 (converted)) of less than 0.01 µM, an IC (TGI) (U251; U-251, U251, read-out: Log10 TGI (converted)) greater than 100 µM and a GI50 (OVCAR-3; OVCAR-3, read-out: Log10 GI50 (converted)) of 0.0257 µM. For the same molecule, the IC (TGI) (OVCAR-3; OVCAR-3, read-out: Log10 TGI (converted)) was 32.4 µM.
